Key:
[1] = J. Med. Chem. 6, 705 (1963); cited from earlier work
[2] = test system: aconitin-induced arrhythmia; settings: mouse, in vivo, po, 100 mg/kg
in vivo = settings: mouse, ip
[3] = test system: aconitin-induced arrhythmia; test: animal or person; settings: Mus musculus, ip, read-out: Delay in time of appearance of arrhythmia
[4] = test system: fibrillation threshold of the heart; test: Determination of the fibrillation threshold in anaesthetized cats; type: in vivo; settings: i.v.
Excerpt: The chests of the cats were opened under chloralose-urethane anaesthesia a bipolar stimulating electrode was fixed onto the heart, and the heart was stimulated electrically with a frequency of 20 Hz, under continuously increasing current strength, until a fibrillo-flattern could be observed. This current strength was regarded as the fibrillation threshold of the animal.

[5] = test system: barium chloride-induced arrhythmia; test: Barium chloride-induced arrhythmia in awake rabbits; type: in vivo; settings: i.v., 2 mg/kg; arrhythmia suspended for at least 3 minutes
Experimental: The compounds to be tested were administered intravenously to the animals 3 minutes after treating them with barium chloride, and the effect was recorded. It was regarded as a positive protecting effect when the compound suspended the arrhythmic condition for at least 3 minutes.

[6] = test system: ouabain-induced arrhythmia; test: Ouabain-induced arrhythmia in anaesthetized dogs; type: in vivo; settings: i.v.; for Complete suspension, number of cases: protection > 30 min = complete
Experimental: Anaesthetized dogs of both sexes were treated intravenously with an infusion of 60 /ug/kg of ouabain to provoke arrhythmia, and the arrhythmic state was maintained with an ouabain dose 60 times less than the initial. In this way a ventricular tachycardia or tachyarrhythmia lasting for more than 180 minutes was provoked. The compounds were tested during this period. The period of recovered normal sinus rhythm was recorded, and when a compound exerted protective effect for more than 30 minutes, this fact was regarded as complete protection. The tests were performed essentially according to the method of Piascik et al. [Can.
Examination of the anti-arrhythmic effect in dogs anaesthetized with a 30
of pentobarbital sodium and treated with ouabain

Cc1cccc(C)c1N(C)CCN [N-methyl-N-(2,6-dimethylphenyl)-ethylenediamine]
hypotensive effects [1]: hypotensive effects

Cc1cccc(C)c1NC(C)CN.Cl.Cl (stereo not drawn) [1-Amino-2-(2,6-dimethylphenyl-amino)-propane dihydrochloride]
Delay in the appearance time of arrhythmia [2]: +41.0% | LD50 (in vivo): 155 mg/kg | change in vivo at 25 mg/kg [3]: 16.6% | change in vivo at 50 mg/kg [3]: 60% | change in vivo at 100 mg/kg [3]: 127%

CCN(CC)CC(=O)Nc1c(C)cccc1C.Cl [N-(diethylamino-acetyl)-2,6-dimethylaniline hydrochloride, reference compound]
Effect on the fibrillation threshold ([4]; 0.5 mg/kg): 0% | Effect on the fibrillation threshold ([4]; 1.0 mg/kg): +2.0% | Effect on the fibrillation threshold ([4]; 2.0 mg/kg): +17.7% | Effect on the fibrillation threshold ([4]; 4.0 mg/kg): +39.1% | Delay in the appearance time of arrhythmia [2]: +38.0% | change in vivo at 5 mg/kg [3]: 1% | change in vivo at 10 mg/kg [3]: 16.2% | change in vivo at 25 mg/kg [3]: 33.7% | change in vivo at 40 mg/kg [3]: 70.1% | Protecting effect, number of animals [5]: 2/10 | Average time of partial suspension ([6]; 0.5 mg/kg): 0.5 min | Complete suspension, number of cases ([6]; 0.5 mg/kg): 0/15 | Average time of partial suspension ([6]; 1.0 mg/kg): 1.6 min | Complete suspension, number of cases ([6]; 1.0 mg/kg): 0/15 | Average time of partial suspension ([6]; 2.0 mg/kg): 2.5 min | Complete suspension, number of cases ([6]; 2.0 mg/kg): 1/15 | Average time of partial suspension ([6]; 4.0 mg/kg): 2.5 min | Complete suspension, number of cases ([6]; 4.0 mg/kg): 3/14 | Average time of partial suspension ([6]; 8.0 mg/kg): 7.5 min | Complete suspension, number of cases ([6]; 8.0 mg/kg): 2/11

Cc1cccc(C)c1NCC(C)N (stereo not drawn) [1-(2,6-dimethylphenyl-amino)-2-amino-propane]
Delay in the appearance time of arrhythmia [2]: +27.0% | LD50 (in vivo): 135 mg/kg | change in vivo at 25 mg/kg [3]: 17% | change in vivo at 50 mg/kg [3]: 87.3% | change in vivo at 100 mg/kg [3]: 124%

Cc1cccc(C)c1NCCC(C)N (stereo not drawn) [1-(2,6-dimethylphenyl-amino)-3-amino-butane]
Effect on the fibrillation threshold ([4]; 0.5 mg/kg): +2.3% | Effect on the fibrillation threshold ([4]; 1.0 mg/kg): +3.0% | Effect on the fibrillation threshold ([4]; 2.0 mg/kg): +16.5% | Effect on the fibrillation threshold ([4]; 4.0 mg/kg): +52.9% | Delay in the appearance time of arrhythmia [2]: +84.0% | change in vivo at 10 mg/kg [3]: 0% | change in vivo at 25 mg/kg [3]: 48% | change in vivo at 50 mg/kg [3]: 87% | change in vivo at 75 mg/kg [3]: 135% | Protecting effect, number of animals [5]: 5/10 | Average time of partial suspension ([6]; 0.5 mg/kg): 0.3 min | Complete suspension, number of cases ([6]; 0.5 mg/kg): 1/16 | Average time of partial suspension ([6]; 1.0 mg/kg): 0.8 min | Complete suspension, number of cases ([6]; 1.0 mg/kg): 1/15 | Average time of partial suspension ([6]; 2.0 mg/kg): 3.7 min | Complete suspension, number of cases ([6]; 2.0 mg/kg): 2/15 | Average time of partial suspension ([6]; 4.0 mg/kg): 5.4 min | Complete suspension, number of cases ([6]; 4.0 mg/kg): 7/14 | Average time of partial suspension ([6]; 8.0 mg/kg): 6.5 min | Complete suspension, number of cases ([6]; 8.0 mg/kg): 3/5

Source: patent US4922021A, “New alkylene diamine derivatives” (BASF Aktiensellschaft, priority 1981, dated 1990)
